Peptide text beside a SMILES is read from it. * marks the point of attachment. X2 = CC[C@@H](C)[C@H](CN[C@@H](Cc1ccccc1)C(=O)O)N*
Molecular target: T1, Neurotensin receptor type 1 (Rattus norvegicus, UniProt P20789)
Assay: IC50 was measured as binding to rat cortex membranes using [3H]- NT (neurotensin) as tracer

T1 sequence (P20789 whole entry): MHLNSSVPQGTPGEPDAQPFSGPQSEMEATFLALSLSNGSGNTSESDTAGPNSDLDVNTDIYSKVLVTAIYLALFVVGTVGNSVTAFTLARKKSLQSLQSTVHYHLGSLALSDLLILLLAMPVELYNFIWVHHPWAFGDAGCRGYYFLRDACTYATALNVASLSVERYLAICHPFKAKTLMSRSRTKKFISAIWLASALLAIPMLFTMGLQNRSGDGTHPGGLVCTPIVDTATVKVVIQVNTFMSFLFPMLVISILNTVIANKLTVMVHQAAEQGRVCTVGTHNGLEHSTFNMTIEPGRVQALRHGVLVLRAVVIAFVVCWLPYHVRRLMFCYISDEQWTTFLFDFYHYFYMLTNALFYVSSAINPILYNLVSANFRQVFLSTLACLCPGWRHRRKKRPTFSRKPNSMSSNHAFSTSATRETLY

Row | IC50 | SMILES
1 | 0.18 µM | CC[C@H](C)[C@H](NC(C#N)[C@@H](Cc1ccc(O)cc1)NC(=O)[C@@H]1CCCN1C(=O)[C@H](CCCN=C(N)N)NC(=O)[C@@H](N)CCCN=C(N)N)C(=O)N[C@@H](CC(C)C)C(=O)O (some centres undefined)
2 | 10 µM | CC[C@H](C)[C@H](NC(C#N)[C@H](Cc1ccc(O)cc1)NC(=O)C1CCCN1C(=O)[C@H](CCCN=C(N)N)NC(=O)[C@@H](N)CCCN=C(N)N)C(=O)N[C@@H](CC(C)C)C(=O)O (some centres undefined)

Molecular target: T1, Neurotensin receptor type 1
Assay: IC50 was measured as binding to rat cortex membranes using [3H]- NT(neurotensin) as tracer

Row | IC50 | SMILES
3 | 6.31 µM | CC[C@H](C)[C@H](NC[C@H](Cc1ccc(O)cc1)NC(=O)[C@@H]1CCCN1C(=O)[C@H](CCCN=C(N)N)NC(=O)[C@@H](N)CCCN=C(N)N)C(=O)N[C@@H](CC(C)C)C(=O)O
4 | 0.005 µM | CC[C@H](C)[C@H](NC(=O)[C@H](Cc1ccc(O)cc1)NC(=O)[C@@H]1CCCN1C(=O)[C@H](CCCNC(=N)N)NC(=O)[C@@H](N)CCCNC(=N)N)C(=O)N[C@@H](Cc1ccccc1)C(=O)O
5 | 0.008 µM | CC(C)C[C@H](NC(=O)[C@H](Cc1ccccc1)NC(=O)[C@H](Cc1ccc(O)cc1)NC(=O)[C@@H]1CCCN1C(=O)[C@H](CCCN=C(N)N)NC(=O)[C@@H](N)CCCN=C(N)N)C(=O)O
6 | 1.2 µM | CC(C)C[C@H](NC(=O)[C@H](CC(=O)[C@H](Cc1ccc(O)cc1)NC(=O)[C@@H]1CCCN1C(=O)[C@H](CCCNC(=N)N)NC(=O)[C@@H](N)CCCNC(=N)N)Cc1ccccc1)C(=O)O
7 | 8 µM | CC[C@@H](C)[C@H](CN[C@@H](Cc1ccccc1)C(=O)O)NC(=O)[C@H](Cc1ccc(O)cc1)NC(=O)[C@@H]1CCCN1C(=O)[C@H](CCCNC(=N)N)NC(=O)[C@@H](N)CCCNC(=N)N (H-RRPY-X2)
8 | 0.9 µM | CC[C@H](C)[C@H](NC(=O)[C@H](Cc1ccc(O)cc1)NC(=O)[C@@H]1CCCN1C(=O)[C@H](CCCN=C(N)N)NC(=O)[C@@H](N)CCCN=C(N)N)C(=O)C[C@H](Cc1ccccc1)C(=O)O (mixture of isomers) [listing 1 of 2 here]
9 | 0.015 µM | CC(C)C[C@H](NC(=O)C(CC(=O)[C@H](Cc1ccc(O)cc1)NC(=O)[C@@H]1CCCN1C(=O)[C@H](CCCNC(=N)N)NC(=O)[C@@H](N)CCCNC(=N)N)Cc1ccccc1)C(=O)O (single isomer, unassigned)
10 | 0.12 µM | CC[C@H](C)[C@H](NC(=O)[C@H](Cc1ccc(O)cc1)NC(=O)[C@@H]1CCCN1C(=O)[C@H](CCCN=C(N)N)NC(=O)[C@@H](N)CCCN=C(N)N)C(=O)C[C@H](Cc1ccccc1)C(=O)O (stereo in doubt; 13a) [listing 1 of 2 here]
11 | 1.2 µM | CC[C@H](C)[C@H](NC(=O)[C@H](Cc1ccc(O)cc1)NC(=O)[C@@H]1CCCN1C(=O)[C@H](CCCN=C(N)N)NC(=O)[C@@H](N)CCCN=C(N)N)C(=O)C[C@H](Cc1ccccc1)C(=O)O (stereo in doubt; 13b) [listing 1 of 2 here]
12 | 1.5 µM | CC[C@H](C)[C@H](NC(=O)[C@H](Cc1ccc(O)cc1)NC(=O)[C@@H]1CCCN1C(=O)[C@H](CCCN=C(N)N)NC(=O)[C@@H](N)CCCN=C(N)N)C(=O)C[C@H](Cc1ccccc1)C(=O)O (stereo in doubt; 13c) [listing 1 of 2 here]

Molecular target: Neurotensin receptor type 1 (Rattus norvegicus) (UniProt P20789)
Sequence (P20789 whole entry): as above
Assay: Relative potency at neurotensin receptor compared to neurotensin (NT8-13)

Row | Relative potency | SMILES
13 | 5.5 | CC[C@H](C)[C@H](NC(C#N)[C@@H](Cc1ccc(O)cc1)NC(=O)[C@@H]1CCCN1C(=O)[C@H](CCCN=C(N)N)NC(=O)[C@@H](N)CCCN=C(N)N)C(=O)N[C@@H](CC(C)C)C(=O)O (some centres undefined)
14 | 0.8 | CC(C)C[C@H](NC(=O)[C@H](CC(=O)[C@H](Cc1ccc(O)cc1)NC(=O)[C@@H]1CCCN1C(=O)[C@H](CCCNC(=N)N)NC(=O)[C@@H](N)CCCNC(=N)N)Cc1ccccc1)C(=O)O
15 | 0.1 | CC[C@H](C)[C@H](NC(C#N)[C@H](Cc1ccc(O)cc1)NC(=O)C1CCCN1C(=O)[C@H](CCCN=C(N)N)NC(=O)[C@@H](N)CCCN=C(N)N)C(=O)N[C@@H](CC(C)C)C(=O)O (some centres undefined)
16 | 105 | CC(C)C[C@H](NC(=O)[C@@H](Cc1ccccc1)NC(=O)[C@H](Cc1ccc(O)cc1)NC(=O)[C@@H]1CCCN1C(=O)[C@H](CCCN=C(N)N)NC(=O)[C@@H](N)CCCN=C(N)N)C(=O)O
17 | 200 | CC[C@@H](C)[C@@H](NC(=O)[C@H](Cc1ccc(O)cc1)NC(=O)[C@@H]1CCCN1C(=O)[C@H](CCCN=C(N)N)NC(=O)[C@@H](N)CCCN=C(N)N)C(=O)N[C@@H](Cc1ccccc1)C(=O)O
18 | 0.1 | CC[C@@H](C)[C@@H](NC[C@H](Cc1ccc(O)cc1)NC(=O)[C@@H]1CCCN1C(=O)[C@H](CCCN=C(N)N)NC(=O)[C@@H](N)CCCN=C(N)N)C(=O)N[C@@H](CC(C)C)C(=O)O
19 | 0.1 | CC[C@@H](C)[C@H](CN[C@@H](Cc1ccccc1)C(=O)O)NC(=O)[C@H](Cc1ccc(O)cc1)NC(=O)[C@@H]1CCCN1C(=O)[C@H](CCCN=C(N)N)NC(=O)[C@@H](N)CCCN=C(N)N (H-RRPY-X2)
20 | 1.1 | CC[C@H](C)[C@H](NC(=O)[C@H](Cc1ccc(O)cc1)NC(=O)[C@@H]1CCCN1C(=O)[C@H](CCCN=C(N)N)NC(=O)[C@@H](N)CCCN=C(N)N)C(=O)C[C@H](Cc1ccccc1)C(=O)O (mixture of isomers) [listing 2 of 2 here]
21 | 66.6 | CC(C)C[C@H](NC(=O)C(CC(=O)[C@H](Cc1ccc(O)cc1)NC(=O)[C@@H]1CCCN1C(=O)[C@H](CCCNC(=N)N)NC(=O)[C@@H](N)CCCNC(=N)N)Cc1ccccc1)C(=O)O (single isomer, unassigned)
22 | 8.3 | CC[C@H](C)[C@H](NC(=O)[C@H](Cc1ccc(O)cc1)NC(=O)[C@@H]1CCCN1C(=O)[C@H](CCCN=C(N)N)NC(=O)[C@@H](N)CCCN=C(N)N)C(=O)C[C@H](Cc1ccccc1)C(=O)O (stereo in doubt; 13a) [listing 2 of 2 here]
23 | 0.8 | CC[C@H](C)[C@H](NC(=O)[C@H](Cc1ccc(O)cc1)NC(=O)[C@@H]1CCCN1C(=O)[C@H](CCCN=C(N)N)NC(=O)[C@@H](N)CCCN=C(N)N)C(=O)C[C@H](Cc1ccccc1)C(=O)O (stereo in doubt; 13b) [listing 2 of 2 here]
24 | 0.6 | CC[C@H](C)[C@H](NC(=O)[C@H](Cc1ccc(O)cc1)NC(=O)[C@@H]1CCCN1C(=O)[C@H](CCCN=C(N)N)NC(=O)[C@@H](N)CCCN=C(N)N)C(=O)C[C@H](Cc1ccccc1)C(=O)O (stereo in doubt; 13c) [listing 2 of 2 here]
